{
  "source": "PubChem BioAssay (NCI)",
  "assay_in_all_cases": "DTP human tumour cell line panel, 384-well format",
  "key": {"DU-145 prostate": {"tested_on": "DU-145 prostate"}, "SN12C renal": {"tested_on": "SN12C renal"}, "NCI-H522 lung": {"tested_on": "NCI-H522 lung"}, "A549 NSCLC": {"tested_on": "A549 NSCLC"}, "NCI-H226 lung": {"tested_on": "NCI-H226 lung"}, "IGROV1 ovarian": {"tested_on": "IGROV1 ovarian"}, "NCI-H460 NSCLC": {"tested_on": "NCI-H460 NSCLC"}, "KM12 colon": {"tested_on": "KM12 colon"}, "HOP-62 NSCLC": {"tested_on": "HOP-62 NSCLC"}, "U251 glioblastoma": {"tested_on": "U251 glioblastoma"}, "CCRF-CEM leukemia": {"tested_on": "CCRF-CEM leukemia"}, "SW-620 colon": {"tested_on": "SW-620 colon"}, "TK-10 renal": {"tested_on": "TK-10 renal"}},
  "note": "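GI50 = concentration required for 50% inhibition of growth. TGI: concentration producing complete growth inhibition.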",
  "data": [
    {"smiles": "COc1nn(C)cc1Nc1nccc(-c2c[nH]c3c(NC(=O)[C@@H](C)N4CCN(C)CC4)cccc23)n1", "values": [
      {"measurement": "GI50", "setting": "DU-145 prostate", "result": 40.4, "unit": "µM"},
      {"measurement": "TGI", "setting": "DU-145 prostate", "result": "> 100", "unit": "µM"},
      {"measurement": "GI50", "setting": "SN12C renal", "result": 26, "unit": "µM"},
      {"measurement": "TGI", "setting": "SN12C renal", "result": "> 100", "unit": "µM"},
      {"measurement": "GI50", "setting": "NCI-H522 lung", "result": 10.2, "unit": "µM"},
      {"measurement": "TGI", "setting": "NCI-H522 lung", "result": 26.5, "unit": "µM"},
      {"measurement": "GI50", "setting": "A549 NSCLC", "result": 25.7, "unit": "µM"},
      {"measurement": "TGI", "setting": "A549 NSCLC", "result": "> 59.9", "unit": "µM"},
      {"measurement": "GI50", "setting": "NCI-H226 lung", "result": 9.15, "unit": "µM"},
      {"measurement": "TGI", "setting": "NCI-H226 lung", "result": 31.6, "unit": "µM"},
      {"measurement": "GI50", "setting": "IGROV1 ovarian", "result": 18.8, "unit": "µM"},
      {"measurement": "TGI", "setting": "IGROV1 ovarian", "result": 52.4, "unit": "µM"},
      {"measurement": "GI50", "setting": "NCI-H460 NSCLC", "result": 25.4, "unit": "µM"},
      {"measurement": "TGI", "setting": "NCI-H460 NSCLC", "result": "> 77", "unit": "µM"},
      {"measurement": "GI50", "setting": "KM12 colon", "result": 20.1, "unit": "µM"},
      {"measurement": "TGI", "setting": "KM12 colon", "result": 61.2, "unit": "µM"},
      {"measurement": "GI50", "setting": "HOP-62 NSCLC", "result": 29.7, "unit": "µM"},
      {"measurement": "TGI", "setting": "HOP-62 NSCLC", "result": "> 89.1", "unit": "µM"},
      {"measurement": "GI50", "setting": "U251 glioblastoma", "result": 27.8, "unit": "µM"},
      {"measurement": "TGI", "setting": "U251 glioblastoma", "result": 75.8, "unit": "µM"},
      {"measurement": "GI50", "setting": "CCRF-CEM leukemia", "result": 15.9, "unit": "µM"},
      {"measurement": "TGI", "setting": "CCRF-CEM leukemia", "result": 29.4, "unit": "µM"},
      {"measurement": "GI50", "setting": "SW-620 colon", "result": 21, "unit": "µM"},
      {"measurement": "TGI", "setting": "SW-620 colon", "result": 40.3, "unit": "µM"},
      {"measurement": "GI50", "setting": "TK-10 renal", "result": 20.5, "unit": "µM"},
      {"measurement": "TGI", "setting": "TK-10 renal", "result": "> 60", "unit": "µM"}
    ]}
  ]
}
